From PMC5963591, “Bitopic Binding Mode of an M1 Muscarinic Acetylcholine Receptor Agonist Associated with Adverse Clinical Trial Outcomes” (Molecular Pharmacology, 2018)

How the values were obtained:
[1] = target: [35S]-GTPγS Gαq binding in rat cortex membranes; experiment: Native tissue GTPγ[35S] binding assay (Gαq antibody capture); format: biochemical
Experimental: GTPɣ-[^35S] ([^35S]ɣ[guanosine-5′-O-(3-[^35S]thio)triphosphate] binding in rat membranes was determined in triplicate using an antibody capture technique in 96-well plate format (DeLapp et al., 1999). Native rat membranes were prepared as follows. All procedures were performed at 4°C. Ten to fifteen milliliters of sucrose buffer (10 mM HEPES, 1 mM EGTA, 1 mM dithiothreitol, 10% sucrose, and one tablet/50 ml Complete Protease Inhibitor Cocktail, pH 7.4) was added to each tissue sample and homogenized for 10 strokes using an electric IKA RW20 homogenizer (800 rpm) (IKA, Staufen, Germany) with glass homogenizer. The homogenate was centrifuged at 1000g for 10 minutes at 4°C and the supernatant collected. The pellet was rehomogenized and centrifuged again as above and the supernatant pooled and centrifuged at 11,000g for 20 minutes at 4°C. The resulting pellet was suspended in 40 ml final storage buffer (10 mM HEPES, 1 mM EGTA, 1 mM MgCl2, and 1 mM dithiothreitol, pH 7.4) and centrifuged at 27,000g for 20 minutes at 4°C. The supernatant was removed and the final pellet was suspended in 2 ml final storage buffer. The protein concentration was measured using the Bradford method (Coomassie Plus, Bio-Rad protein assay kit; Bio-Rad, Hercules, CA) with bovine gamma globulin standards. […] Plates were counted for 1 minute/well using a Wallac MicroBeta Trilux scintillation counter (PerkinElmer). […]

human mAChR M4 = target: T1, human mAChR M4 (Homo sapiens, UniProt P08173); experiment: [3H]-NMS competition binding, CHO membranes, M4
T1 construct: purchased PerkinElmer; host or cells: CHO
T1 sequence (P08173 whole entry): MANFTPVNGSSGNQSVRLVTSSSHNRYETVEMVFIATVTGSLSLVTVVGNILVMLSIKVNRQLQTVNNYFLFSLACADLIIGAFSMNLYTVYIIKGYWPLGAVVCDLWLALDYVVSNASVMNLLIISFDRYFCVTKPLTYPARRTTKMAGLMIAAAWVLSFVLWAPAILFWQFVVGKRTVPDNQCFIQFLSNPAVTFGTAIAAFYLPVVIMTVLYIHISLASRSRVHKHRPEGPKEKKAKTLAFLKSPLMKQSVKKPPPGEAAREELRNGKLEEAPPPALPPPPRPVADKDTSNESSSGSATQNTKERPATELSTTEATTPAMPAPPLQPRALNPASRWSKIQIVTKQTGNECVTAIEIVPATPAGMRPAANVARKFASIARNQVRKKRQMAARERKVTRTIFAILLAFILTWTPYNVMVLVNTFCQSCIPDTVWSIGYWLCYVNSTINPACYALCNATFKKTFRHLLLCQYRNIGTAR
Experimental: (§1) For competition binding experiments at M1, M2, M3, M4, and M5 mAChRs, CHO membranes were purchased from PerkinElmer. All experiments were performed in assay buffer of the following composition: 20 mM HEPES, 100 mM NaCl, and 10 mM MgCl2, pH 7.5, and used 10 µg protein/well in a total assay volume of 1 ml using deep well blocks. […] All assay incubations were initiated by the addition of membrane suspensions and deep well blocks were shaken for 5 minutes to ensure complete mixing. Incubation was then carried out for 2 hours at 21°C. Binding reactions were terminated by rapid filtration through GF/A filters (PerkinElmer) presoaked with 0.5% (w/v) polyethylenimine for 1 hour. Filters were then washed three times with 1 ml ice-cold assay buffer.
(§2) Inhibition binding data were curve-fit using GraphPad Prism 6 to derive the potency (IC50) of the test compound. The equilibrium dissociation constant (KI) of the test compound was then calculated with the Cheng–Prusoff equation: KI = IC50/[1 + ([L]/KD)] using the KD value derived separately from saturation binding studies.

human mAChR M5 = target: T2, human mAChR M5 (Homo sapiens, UniProt P08912); experiment: [3H]-NMS competition binding, CHO membranes, M5
T2 construct: purchased PerkinElmer; host or cells: CHO
T2 sequence (P08912 whole entry): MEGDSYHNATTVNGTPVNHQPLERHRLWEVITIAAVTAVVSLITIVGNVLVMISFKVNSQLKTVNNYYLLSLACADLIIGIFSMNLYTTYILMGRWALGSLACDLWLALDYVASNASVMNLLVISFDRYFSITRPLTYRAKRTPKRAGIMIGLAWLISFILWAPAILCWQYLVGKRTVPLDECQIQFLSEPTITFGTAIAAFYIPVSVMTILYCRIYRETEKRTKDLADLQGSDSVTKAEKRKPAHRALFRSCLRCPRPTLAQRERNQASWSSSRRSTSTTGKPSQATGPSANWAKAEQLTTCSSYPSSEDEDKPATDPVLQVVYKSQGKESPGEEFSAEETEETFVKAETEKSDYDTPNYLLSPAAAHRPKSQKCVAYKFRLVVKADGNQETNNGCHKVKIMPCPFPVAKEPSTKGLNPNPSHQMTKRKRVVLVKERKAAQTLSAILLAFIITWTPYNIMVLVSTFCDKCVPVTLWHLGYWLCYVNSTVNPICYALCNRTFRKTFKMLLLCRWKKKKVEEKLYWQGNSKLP
Experimental: as §1, §2

C57Bl/6J mice = experiment: Contextual fear conditioning, scopolamine-induced deficit; format: in vivo, mouse; settings: escalating i.p. doses with scopolamine […]
Experimental: C57Bl/6J male mice (aged 8–12 weeks) were acclimatized to the behavioral testing suite at least 2 hours prior to the test. […] Mice were placed in the conditioning chamber (ANY-maze Fear Conditioning System; Stoelting, Dublin, Ireland); after a 2-minute adaptation period, they received three tone/foot shock pairings where the foot shock (unconditioned stimulus; 2 seconds; 0.4 mA) always co-terminated with a tone (conditioned stimulus; 2.8 kH; 85 dB; 30 seconds). The conditioned stimulus–unconditioned stimulus pairings were separated by 1-minute intervals. After the mice completed training, they remained in the conditioning chamber for 1 minute and were then returned to their home cages. The next day, the mice were placed back in the conditioning chamber, and time spent immobile was recorded for 3 minutes to assess context-dependent learning. Data were analyzed using ANY-maze software (Stoelting).

[2] = Mouse pharmacokinetics, unbound plasma and brain concentrations; format: in vivo; settings: mice, 30 minutes after i.p. administration
Experimental: Pharmacokinetic analyses were conducted as previously described ([Witkin et al., 2017]). Compounds were administered via intraperitoneal injection (in 5% glucose) 30 minutes prior to blood collection. Mice were anesthetized with 3% isoflurane (2 l/min), and blood was collected by cardiac puncture of the left ventricle. Blood was immediately transferred to EDTA tubes and centrifuged at 1000g for 10 minutes at 4°C; the supernatant was collected and frozen. Brains from each mouse were also dissected and snap-frozen on dry ice.
Brain samples were homogenized in three volumes of methanol/water [1:4 (v/v)] by weight. A 25-μl aliquot of each study sample, calibration standard, and control sample was added to a 96-well plate and mixed with 180 μl acetonitrile/methanol [1:1 (v/v)] containing internal standard. The samples were subsequently centrifuged, and the resulting supernatants were diluted 12.5-fold with methanol/water [1:1 (v/v)] prior to analyzing 10-μl aliquots by liquid chromatography–tandem mass spectrometry as previously described ([Bradley et al., 2017]).

pEC50, [^35S]-GTPγS Gαq binding [1]: 6.7 ± 0.1 | [^35S]-GTPγS Gαq binding, maximum relative to oxotremorine-M ([1]; % of maximum elicited by oxotremorine-M): approximately 37% | Ki (human mAChR M4): 2000 nM | Ki (human mAChR M5): 6.31 µM | free brain concentration versus dose [2]: increase linearly with escalating doses
Structure (SMILES): Cc1cc(F)c2[nH]c(=O)n(C3CCN(C4CCOCC4)CC3)c2c1 [GSK1034702, 7-fluoro-5-methyl-3-[1-(oxan-4-yl)piperidin-4-yl]-1H-benzimidazol-2-one]
shape of the dose response on learning and memory (C57Bl/6J mice): bell shaped
